Experimental findings from patent publication EP0368756A1, “Dibenzocycloheptene derivatives, process for their preparation and their use as medicaments” (ROUSSEL-UCLAF, priority 1988, dated 1990) are described below.

Assay [1] has as its system couche CA₁ de l'hippocampe. The assay can be described thus: Neuronal protective effect in the hippocampus after stereotaxic quinolinic acid injection. It counts as in vivo. The following applies: anaesthetised rat; 20 mg/kg intraperitoneal 30 min before quinolinic acid (5 micrograms) into right hippocampus; cresyl violet histology one week later. The protocol: Recherche de l'effet protecteur neuronal dans l'hippocampe.
L'essai a été réalisé chez le rat anesthésié. Une injection stéréotaxique d'acide quinolinique (5 microgrammes) est réalisée dans l'hippocampe droit. Le produit à étudier (ou le véhicule seul pour le lot d'animaux témoins) est administré par voie intrapéritonéale 30 minutes auparavant.
Une semaine plus tard, les cerveaux sont prélevés et coupés en tranches fines. Les tranches sont colorées au crésyl violet et photographiées.
Chez les animaux témoins, l'acide quinolinique détruit la couche CA₁ de l'hippocampe droit tandis que l'hippocampe gauche (contrôle) non injecté, est intacte. L'hippocampe gauche des animaux n'a reçu aucun traitement. Chez les animaux ayant reçu une administration de 20 mg/kg du produit de l'exemple 7, par voie intrapéritonéale, la couche CA₁ de l'hippocampe droit est protégée donc identique à celle de l'hippocampe gauche qui n'a pas reçu d'injection d'acide quinolinique.

Assay [2] has as its system convulsions toniques entrainées par le pentétrazol. Description: Anticonvulsant activity against pentetrazol-induced tonic convulsions. It counts as in vivo, souris. As to conditions: sc; mouse; pentetrazol 160 mg/kg s.c. given 1 hour after the product; tonic convulsions noted for 30 minutes; read-out: DA₅₀ ou dose qui diminue de 50 % le nombre de convulsions toniques entrainées par le pentétrazol. The protocol: Activité anticonvulsivante chez la souris.
L'essai est réalisé sur des lots de 10 souris. L'agent convulsivant est le pentétrazol, en solution aqueuse à la dose de 160 mg/kg s.c. sous un volume de 0,5 ml/20 g, administré 1 heure après le produit de l'exemple 7. Les animaux sont isolés et les convulsions toniques sont notées pendant 30 minutes.
La DA₅₀ ou dose qui diminue de 50 % le nombre de convulsions toniques entrainées par le pentétrazol est de 2,3 mg/kg.

`Nc1ccc2c(c1)C1Cc3ccccc3C2N1` (centres unmarked) [exemple 7, 8-amino 10,11-dihydro 5,10-imino 5H-dibenzo[a,d]-cycloheptène]: the “effet protecteur neuronal dans l'hippocampe” value in assay [1] is “protégée”. Further, in assay [2], the ED50 is 2.3 mg/kg.
